Legend:
[1] = test system: human peripheral blood mononuclear cells (PBMC); test: PBMC cytokine levels, CD3/CD28 stimulated condition; format: cell-based; conditions: for Relative level of CCL17, observed / Relative level of IL-4, observed / Relative level of IL-13, observed: blanc = 1, 0.2 wt % 2′-FL, 0.1 wt % 3′-GL, mean
Procedure: Isolation of PBMC from healthy donors: Human peripheral blood mononuclear cells (PBMC) from healthy donors were isolated from buffy coats (Sanquin, Amsterdam, the Netherlands). PBMC were obtained by centrifugation using Leucosep tubes (Greiner Bio-One). PBMC were collected and washed in PBS (Gibco, Thermo Fisher Technologies)+2% heat-inactivated FCS (Invitrogen), followed by hypotonic lysis of erythrocytes with sterile lysis buffer (0.15 M NH4Cl, 0.01 M KHCO3 and 0.1 mM EDTA, pH of 7.4 at 4° C., all from Merck, Darmstadt, Germany). After lysis, the PBMC were resuspended in freezing medium (70% RPMI 1640 medium (Gibco, Thermo Fisher Technologies) supplemented with 10% heat-inactivated FCS and 100 U/ml penicillin-streptomycin, 20% heat-inactivated FCS and 10% DMSO (Sigma)) and cryopreserved.
PBMC activation model: PBMC (0.2.10^6 cell/well) were cultured in 96-well flat bottom plates (Corning). For 24 hours the cells were pre-incubated with 2′-FL (Jennewein), 3′-GL (0-0.3% w/v; Carbosynth) or sodium butyrate (0.2 mM; Sigma Aldrich) and combinations thereof. Subsequently, the cells were CD3/CD28-activated (Pelicluster CD3 and Pelicluster CD28, Sanquin) for an additional 24 hours. After incubation, IFNγ was measured by ELISA in the supernatants (see below). To determine cell activity after stimulation, PBMC were incubated with cell proliferation reagent WST-1 (10 μl; Roche) and/or 10% Triton (5 μl; negative control). After 3 hours, absorbance was measured at OD450 nm and OD650 nm and cell activity was calculated according to manufacturer's instructions.
Cytokine production of PBMC: PBMC were incubated with indicated reagents. After incubation, the supernatants were collected and IL2, IL6, IL10, IL13, IL21, TNFα, IFNγ, MIF, CCL1, CCL13, CCL17, CCL20, CCL22 and CXCL8-11 levels were measured by conducting a validated multiplex immunoassay based on Luminex technology (xMAP, Luminex Austin Tex. USA). Acquisition was conducted with the Biorad FlexMAP3D (Biorad laboratories, Hercules USA) in combination with xPONENT software version 4.2 (Luminex). Data was analyzed by 5-parametric curve fitting using Bio-Plex Manager software, version 6.1.1 (Biorad).
After PBMC stimulation, cell culture supernatants were collected, after which cytokine responses were measured in order to test immune responsiveness of the cells. […] In addition, since each donor is reacting in its own efficiency onto the T cell stimulus, we calculated the individual index of cytokine response by dividing the intervention induced response by the basal stimulated response.
Subsequently, in order to test the direct effect of specific compounds on PBMC activity, the cells were activated with CD3/CD28 for 24 hours after a pre-incubated for 24 h with either 2′-FL, 3′-GL and combinations thereof. In addition, since each donor is reacting in its own efficiency onto the T cell stimulus, the individual index of cytokine response was calculated by dividing the intervention induced response by the basal stimulated response (the blanc is set at 1). In this way the intervention within 10 different donors has been studied.

Caco-2 cell monolayer = test: DON-induced impairment of Caco-2 cell monolayer integrity (TEER, lucifer yellow flux); format: cell-based, human
Procedure: Caco-2 cells were used according to established methods. In brief: cells were cultured in Dulbecco's modified Eagle medium (DMEM) and seeded at a density of 0.3×10^5 cells into 0.3 cm^2 high pore density (0.4 μm) inserts with a polyethylene terephthalate membrane (BD Biosciences, Franklin Lakes, N.J., USA) placed in a 24-well plate. The Caco-2 cells were maintained in a humidified atmosphere of 95 air and 5% CO2 at 37° C.
Caco-2 cell monolayers were thus grown in a transwell system, which is a model for intestinal barrier function. The monolayers were pretreated for 24 h with different GLs, including beta3′-GL, alpha3′-GL, beta4′-GL and beta6′-GL in a concentration of 0.75 wt. % of the GL, before being exposed to the fungal toxin deoxynivalenol (DON), which is a trigger and model compound to impair intestinal barrier. DON was diluted to a final concentration of 4.2 μM in complete cell medium and added to the apical side as well as to the basolateral side of the transwell inserts. […] Incubation with DON was 24 h.
Measurements of the transepithelial electrical resistance (TEER) and lucifer yellow (LY) permeability were conducted to investigate barrier integrity. For TEER measurements a Millicel-ERS voltohmmeter connected to a pair of chopsticks electrodes was used to measure the TEER values. Results are expressed as a percentage of the initial value. For paracellular tracer flux assay the membrane impermeable lucifer yellow (LY) (Sigma, St Louis, Mo., USA) was added in a concentration of 16 μg/ml to the apical compartment in the transwell plate for 4 h, and the paracellular flux was determined by measuring the fluorescence intensity in the basolateral compartment with a spectrophotofluorimeter (FLUOstar Optima, BMG Labtech, Offenburg, Germany) set at excitation and emission wavelengths of 410 and 520 nm, respectively. Release of interleukin-8 (IL-8 or CXCL8), which is a typical marker for inflammation, was quantified in the medium of the apical side and the basolateral side of the Caco-2 transwell inserts in response to the treatments. CXCL8 concentrations were measured by using the human IL-8 ELISA assay (BD Biosciences, Pharmingem, San Diego, Calif., USA) according to manufacturer's instructions. For more details on materials and methods see Akbari et al, 2016, Eur J Nutr. 56(5):1919-1930.

[2] = DON 4.2 μM with 2′-FL 1 mg/ml, mean

Compound	CCL17 levels [1]	levels of IL-4 and IL-13 compared to control [1]	Relative level of CCL17, observed [1]	Relative level of IL-4, observed [1]	Relative level of IL-13, observed [1]	effect on DON induced reduction in TEER and increase in LYF (Caco-2 cell monolayer; 2′-FL 1 mg/ml)	Lucifer yellow flux (Caco-2 cell monolayer; [2])	TEER (% of initial value) (Caco-2 cell monolayer; [2])	effect on DON-induced loss of epithelial barrier integrity (TEER, LY flux) (Caco-2 cell monolayer; 24 h pretreatment with 0.75 wt. % GL, then DON 4.2 μM 24 h, FIGS. 1A-D)
C[C@@H]1O[C@@H](O[C@H]2[C@H](O[C@H]3[C@H](O)[C@@H](O)C(O)O[C@@H]3CO)O[C@H](CO)[C@H](O)[C@@H]2O)[C@@H](O)[C@H](O)[C@@H]1O (stereo partly drawn) [2′-FL, α-L-Fuc-(1→2)-β-D-Gal-(1→4)-D-Glc]	no significant effect on CCL17 levels	had no effect on the levels of IL-4 and IL-13	1.061	0.9887	1.039	statistically significantly prevent the DON induced reduction in TEER and increase in LYF	446.4 ng/ml (cm^2 × h)	42.79 % of initial value	
Gal (beta 1-3)-Gal (beta 1-4)-Glc [3′-GL]	no significant effect on CCL17 levels	a decrease was detected	0.6212	0.5825	0.5472				prevented the DON-induced loss of epithelial barrier integrity

— US20220079962A1, “NUTRITIONAL COMPOSITION COMPRISING 2'FUCOSYLLACTOSE AND DIETARY BUTYRATE” (N.V. Nutricia, priority 2019, published 2022)
